Data: patent publication US9676789B2, “Aminated derivative of homoharringtonine, preparation method therefor, and application thereof” (HANGZHOU BENSHENG PHARMACEUTICAL CO., LTD., priority 2011, dated 2017)
Values after ≈ are worked out from the molar mass of the structure shown.

Experiments:
[1] = system: H9 (acute lymphoblastic leukemia, ALL); test: MTT leukemia cell growth inhibition, 72 h; type: cell-based, human; conditions: Homo sapiens, H9, 72 h
Outline: (§1)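 Using 6000 leukemia cells per well in 1640 medium supplemented with 10% fetal bovine serum, homoharringtonine derivatives at different concentrations were applied for 72 h, then viability was assessed by MTT.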

[2] = system: Jurkat (acute lymphoblastic leukemia, ALL); test: MTT leukemia cell growth inhibition, 72 h; type: cell-based, human; conditions: Homo sapiens
Outline: as §1

[3] = system: K562/adr (drug-resistant, chronic myeloid leukemia, CML); test: MTT leukemia cell growth inhibition, 72 h; type: cell-based, human; conditions: Homo sapiens, K562/Adr
Outline: as §1

[4] = system: Kasumi-1 (acute myeloid leukemia M2 type, AML-M2); test: MTT leukemia cell growth inhibition, 72 h; type: cell-based, human; conditions: Homo sapiens, Kasumi-1, 72 h
Outline: as §1

[5] = system: NB4 (acute promyelocytic leukemia, AML); test: MTT leukemia cell growth inhibition, 72 h; type: cell-based, human; conditions: Homo sapiens, NB4, 72 h
Outline: as §1

[6] = system: RPMI8226 (multiple myeloma); test: MTT multiple myeloma cell growth inhibition, 72 h; type: cell-based, human
Outline: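 RPMI8226 cells at 6000 per well in 1640 medium with 10% fetal bovine serum, exposed to homoharringtonine derivatives at various concentrations. Incubation 72 h at 37° C, 5% CO2; viable cells read by MTT.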

[7] = system: A549 (human lung cancer); test: MTT solid tumor cell growth inhibition, 72 h; type: cell-based; conditions: Homo sapiens, A549, 72 h
Outline: (§2)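 Percent cell viability comes from the MTT method, normalised to untreated control wells as 100%. Compounds at varying concentrations were left on the cells for 72 h after a 24 h settling period, with 4000 cells seeded per well in 10% FBS-supplemented DMEM high glucose.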

[8] = system: Becap37 (human breast cancer cell); test: MTT solid tumor cell growth inhibition, 72 h; type: cell-based; conditions: Homo sapiens, Becap37, 72 h
Outline: as §2

[9] = system: Hela (human cervical cancer cell); test: MTT solid tumor cell growth inhibition, 72 h; type: cell-based; conditions: Homo sapiens, HeLa
Outline: as §2

[10] = system: Hep-2 (human hepatocellular carcinoma); test: MTT solid tumor cell growth inhibition, 72 h; type: cell-based; conditions: Homo sapiens, HEp-2, Hep2, 72 h
Outline: as §2

[11] = system: Huh7 (human liver cancer cell); test: MTT solid tumor cell growth inhibition, 72 h; type: cell-based; conditions: Homo sapiens, Huh-7, Huh7, 72 h
Outline: as §2

[12] = system: MGC 803 (human gastric cancer cell); test: MTT solid tumor cell growth inhibition, 72 h; type: cell-based; conditions: Homo sapiens, MGC 803, 72 h
Outline: as §2

[13] = system: RKO (human colon adenocarcinoma cell); test: MTT solid tumor cell growth inhibition, 72 h; type: cell-based; conditions: Homo sapiens
Outline: as §2

[14] = system: CNE (nasopharyngeal carcinoma cell); test: MTT solid tumor cell growth inhibition, 72 h; type: cell-based, human; conditions: Homo sapiens
Outline: as §2

[15] = system: CaES-17 (esophageal cancer cell); test: MTT solid tumor cell growth inhibition, 72 h; type: cell-based, human; conditions: Homo sapiens, CaEs17, CaES-17, 72 h
Outline: as §2

[16] = system: MG63 (osteosarcoma); test: MTT solid tumor cell growth inhibition, 72 h; type: cell-based, human; conditions: Homo sapiens, MG 63, 72 h
Outline: as §2

[17] = system: PANC-1 (pancreatic cancer); test: MTT solid tumor cell growth inhibition, 72 h; type: cell-based, human; conditions: Homo sapiens, PANC-1, 72 h
Outline: as §2

[18] = system: PC-3 (prostate cancer); test: MTT solid tumor cell growth inhibition, 72 h; type: cell-based, human; conditions: Homo sapiens, PC-3, 72 h
Outline: as §2

[19] = system: SK-OV-3 (ovarian cancer cell); test: MTT solid tumor cell growth inhibition, 72 h; type: cell-based, human; conditions: Homo sapiens, SK-OV-3, 72 h
Outline: as §2

[20] = system: U87 MG (malignant glioma cell); test: MTT solid tumor cell growth inhibition, 72 h; type: cell-based, human; conditions: Homo sapiens, U-87 MG
Outline: as §2

[21] = system: K562/adr, NB4, Kasumi-1 and H9; test: Anti-leukemia activity, summary over cell lines; type: cell-based, human; conditions: result in words, summary of Table 1
Excerpt: Leukemia cell lines: K562/adr (drug-resistant, chronic myeloid leukemia, CML), NB4 (acute promyelocytic leukemia, AML), Kasumi-1 (acute myeloid leukemia M2 type, AML-M2), Jurkat (acute lymphoblastic leukemia, ALL), all of which are donated by Cancer Research Institute of Zhejiang University, China; and H9 (acute lymphoblastic leukemia, ALL), which is purchased from China Center for Type Culture Collection.
Obtaining 6000 well-growing leukemia cells and inoculating them into wells of a 96-well cell culture plate. The culture medium is the 1640 cell culture medium containing 10% fetal bovine serum. After adding the homoharringtonine derivatives of different concentrations and mixing uniformly, placing the plate in a carbon dioxide cell incubator (5% CO2) at 37° C. and incubating for 72 hours. Then the viable cell concentration is determined by the MTT method. In this experiment, the cell viability in control group (not treated with any compound) is set as 100%.

[22] = system: A549, PANC-1, Becap37, MG63, Huh7, RKO, Hela, CaES-17, CNE, Hep-2, PC-3 and SK-OV-3; test: Anti-human solid tumor effect, summary over cell lines; type: cell-based; conditions: result in words, summary of Table 2
Method: Human solid tumor cell lines: Hep-2 ([…]), A549 (human lung cancer), CaES-17 (esophageal cancer cell), PC-3 (prostate cancer), CNE (nasopharyngeal carcinoma cell), and SK-OV-3 (ovarian cancer cell), all of which are purchased from China Center For Type Culture Collection; RKO (human colon adenocarcinoma cell), MGC 803 (human gastric cancer cell), MG63 (osteosarcoma) and U87 MG (malignant glioma cell), all of which are purchased from Fuxiang Bio-tech Co. Ltd., Shanghai, China; PANC-1 (pancreatic cancer), Huh7 (human liver cancer cell), Becap37 (human breast cancer cell), and Hela (human cervical cancer cell), all of which are donated by Cancer Research Institute of Zhejiang University, China.
Obtaining 4000 well-growing human solid tumor cells and inoculating them into wells of a 96-well cell culture plate. The culture medium is DMEM High Glucose cell culture medium containing 10% fetal bovine serum. The plate is placed in a carbon dioxide cell incubator (5% CO2) at 37° C. and incubating for 24 hours. After adding the homoharringtonine derivatives of different concentration and mixing uniformly, the plate is placed in a carbon dioxide cell incubator (5% CO2) at 37° C. and incubating for 72 hours. Then the viable cell concentration is determined by the MTT method and the cell viability (%) after drug treatment is calculated. In this experiment, the cell viability of control group (not treated with any compound) is set as 100%.

Question: With `COC1=C[C@]23CCCN2CCc2cc4c(cc2[C@@H]3[C@@H]1OC(=O)[C@@](O)(CCCC(C)(C)O)CC(=O)NC1CCCCC1)OCO4` [BS-HH-042, O-3-[(2R)-2,6-dihydroxy-2-(2′-cyclohexaneamino-2′-oxoethyl)-6-methylheptanoyl]cephalotaxine] as the molecule, how does the IC50 ([1]; read-out: IC50) read?
Answer: 0.04 µg/mL (≈ 0.0653 µM)

Question: And the IC90 ([1]; read-out: IC90)?
Answer: 0.1 µg/mL (≈ 0.163 µM)

Question: And the IC50 ([2]; read-out: IC50)?
Answer: 0.037 µg/mL (≈ 0.0604 µM)

Question: What about the IC90 ([2]; read-out: IC90) of the same molecule?
Answer: 16 µg/mL (≈ 26.1 µM)

Question: What about the IC50 ([3]; read-out: IC50) of the same molecule?
Answer: 3.2 µg/mL (≈ 5.22 µM)

Question: And the IC90 ([3]; read-out: IC90)?
Answer: 16 µg/mL (≈ 26.1 µM)

Question: And the IC50 ([4]; read-out: IC50)?
Answer: 0.048 µg/mL (≈ 0.0783 µM)

Question: And the IC90 ([4]; read-out: IC90)?
Answer: 0.21 µg/mL (≈ 0.343 µM)

Question: What about the IC50 ([5]; read-out: IC50) of the same molecule?
Answer: 0.06 µg/mL (≈ 0.0979 µM)

Question: And the IC90 ([5]; read-out: IC90)?
Answer: 0.13 µg/mL (≈ 0.212 µM)

Question: And the IC50 ([6]; Homo sapiens, RPMI-8226, RPMI8226, 72 h, read-out: IC50)?
Answer: 0.042 µg/mL (≈ 0.0685 µM)

Question: And the IC90 ([6]; Homo sapiens, RPMI-8226, RPMI8226, 72 h, read-out: IC90)?
Answer: 0.24 µg/mL (≈ 0.392 µM)

Question: What about the “anti-RPMI8226 (multiple myeloma) effect” value ([6]; result in words, summary of Table 2) of the same molecule?
Answer: strong

Question: And the IC50 ([7]; read-out: IC50)?
Answer: 0.45 µg/mL (≈ 0.734 µM)

Question: And the IC90 ([7]; read-out: IC90)?
Answer: > 16 µg/mL

Question: And the IC50 ([8]; read-out: IC50)?
Answer: 0.17 µg/mL (≈ 0.277 µM)

Question: What about the IC90 ([8]; read-out: IC90) of the same molecule?
Answer: > 16 µg/mL

Question: And the IC50 ([9]; read-out: IC50)?
Answer: 0.45 µg/mL (≈ 0.734 µM)

Question: What about the IC90 ([9]; read-out: IC90) of the same molecule?
Answer: > 16 µg/mL

Question: What about the IC50 ([10]; read-out: IC50) of the same molecule?
Answer: 0.97 µg/mL (≈ 1.58 µM)

Question: What about the IC90 ([10]; read-out: IC90) of the same molecule?
Answer: > 16 µg/mL

Question: And the IC50 ([11]; read-out: IC50)?
Answer: 0.044 µg/mL (≈ 0.0718 µM)

Question: And the IC90 ([11]; read-out: IC90)?
Answer: > 16 µg/mL

Question: And the IC50 ([12]; read-out: IC50)?
Answer: 0.096 µg/mL (≈ 0.157 µM)

Question: And the IC90 ([12]; read-out: IC90)?
Answer: 0.25 µg/mL (≈ 0.408 µM)

Question: What about the IC50 ([13]; read-out: IC50) of the same molecule?
Answer: 0.029 µg/mL (≈ 0.0473 µM)

Question: What about the IC90 ([13]; read-out: IC90) of the same molecule?
Answer: 0.23 µg/mL (≈ 0.375 µM)

Question: And the IC50 ([14]; read-out: IC50)?
Answer: 0.13 µg/mL (≈ 0.212 µM)

Question: And the IC90 ([14]; read-out: IC90)?
Answer: > 16 µg/mL

Question: What about the IC50 ([15]; read-out: IC50) of the same molecule?
Answer: 0.29 µg/mL (≈ 0.473 µM)

Question: What about the IC90 ([15]; read-out: IC90) of the same molecule?
Answer: 16 µg/mL (≈ 26.1 µM)

Question: And the IC50 ([16]; read-out: IC50)?
Answer: 0.12 µg/mL (≈ 0.196 µM)

Question: And the IC90 ([16]; read-out: IC90)?
Answer: 16 µg/mL (≈ 26.1 µM)

Question: And the IC50 ([17]; read-out: IC50)?
Answer: 0.13 µg/mL (≈ 0.212 µM)

Question: And the IC90 ([17]; read-out: IC90)?
Answer: > 16 µg/mL

Question: What about the IC50 ([18]; read-out: IC50) of the same molecule?
Answer: 0.31 µg/mL (≈ 0.506 µM)

Question: And the IC90 ([18]; read-out: IC90)?
Answer: > 16 µg/mL

Question: And the IC50 ([19]; read-out: IC50)?
Answer: 0.21 µg/mL (≈ 0.343 µM)

Question: And the IC90 ([19]; read-out: IC90)?
Answer: > 16 µg/mL

Question: And the IC50 ([20]; read-out: IC50)?
Answer: 0.12 µg/mL (≈ 0.196 µM)

Question: And the IC90 ([20]; read-out: IC90)?
Answer: 13 µg/mL (≈ 21.3 µM)

Question: What about the “anti-K562/adr, anti-NB4, anti-Kasumi-1 and anti-H9 activity” value [21] of the same molecule?
Answer: strong

Question: What about the “anti-A549, anti-PANC-1, anti-Becap37, anti-MG63, anti-Huh7, anti-RKO, anti-Hela, anti-CaES-17, anti-CNE, anti-Hep-2, anti-PC-3 and anti-SK-OV-3 effect” value [22] of the same molecule?
Answer: strong
